# Values quoted from earlier work as cited in patent publication US20250235391A1, “Lip Balm Containing Caffeine, Nicotine or Testosterone” (Shear Kershman Laboratories, Inc., priority 2018, published 2025).
structure (smiles),measurement,setting,value
"CCCCCc1cc(O)c2c(c1)OC(C)(C)[C@@H]1CCC(C)=C[C@@H]21 [Dronabinol, A9-tetrahydrocannabinol]",duration of action for psychoactive effects,after oral administration,4 to 6 h
same,duration of appetite stimulant effect,after oral administration,≥ 24 h
same,peak effect (time),after oral administration,2 to 4 h
same,maximal plasma levels,oral dosing of 20 mg in a sesame oil formulation,around 10 ng/ml
same,administered dose reaching systemic circulation,"oral, first pass hepatic metabolism and high lipid solubility",10-20%
same,absorbed after a single oral dose,single oral dose,90-95%
